Test results taken from patent publication US20190292572A1, “Novel protic or phosphate-based ionic liquids useful for lignocellulosic processing” (priority 2016, published 2019).
Like-named read-outs stand apart in the source and are kept apart here. Values belong to the molecule of their own block, whether it stands above or below them.

What was measured:
[1] = One-pot IL pretreatment and enzymatic saccharification (sugar yield); design: species or system Panicum virgatum; conditions: for yield of glucose / yield of xylose: 160 °C
Description: FIG. 3. Effect of IL type on the sugar yield (pretreatment: 10 wt % SG loading, 90 wt % IL, 140° C., 1 h, saccharification: 10 wt % IL, 10 mg protein per g switchgrass, 50° C., 72 h.
FIG. 4A. Effects of some parameters on the sugar yield: Biomass loading at pretreatment. Normal operation conditions: pretreatment, 10 wt % SG loading, 90 wt % IL, 160° C., 0.5 h (3 h for ecucalyptus); saccharification, 10 wt % IL, 20 mg protein/g SG, 50° C., 72 h.
FIG. 4B. Effects of some parameters on the sugar yield: Temperature/time. Normal operation conditions: pretreatment, 10 wt % SG loading, 90 wt % IL, 160° C., 0.5 h (3 h for ecucalyptus); saccharification, 10 wt % IL, 20 mg protein/g SG, 50° C., 72 h.
In a typical procedure, SG (100 mg) was mixed with ([EOA][OAc]) at a 10% biomass loading in a 15 mL capped glass pressure tube and pretreated in a convection oven at 160° C. for 0.5 h. Untreated raw SG (30-40 mesh) was used as a control. […] Enzymatic saccharification step was operated at 50° C. for 72 hrs with constant agitation on an Enviro Genie SI-1200 rotator platform (Scientific Industries, Inc., Bohemia, N.Y.). The loading of enzyme cocktails (9CTec2/HTec2, v/v) is 20 mg EP per g SG.

[2] = IL pretreatment and saccharification of different feedstocks: corn stover; conditions: corn stover (FIG. 4D)
Description: (§1) FIG. 4D. Effects of some parameters on the sugar yield: Biomass category. Normal operation conditions: pretreatment, 10 wt % SG loading, 90 wt % IL, 160° C., 0.5 h (3 h for ecucalyptus); saccharification, 10 wt % IL, 20 mg protein/g SG, 50° C., 72 h.
(§2) Thereafter, we explored the feasibilities of [EOA][OAc] for the pretreatment of different feedstocks including mixed feedstocks of SG and eucalyptus (1:1, w/w), eucalyptus (EU), and corn stover (CS).

[3] = IL pretreatment and saccharification of different feedstocks: eucalyptus; conditions: 3 h pretreatment (FIG. 4D)
Description: as §1, §2

[4] = IL pretreatment and saccharification of different feedstocks: mixed feedstocks; conditions: mixed feedstocks SG and eucalyptus 1:1 (FIG. 4D)
Description: as §1, §2

[5] = Compositional analysis of switchgrass after IL pretreatment; design: species or system Panicum virgatum; conditions: higher temperature pretreatment vs untreated
Text: Thus, compositional analysis of untreated, and pretreated SG with [EOA][OAc] at different temperatures and time was studied and the results were summarized in Table 4. Solid recovery refers to the mass percentage of biomass (dry weight) recovered from the original biomass load. After washing, 55-81% of the biomass was recovered. […] Untreated SG contained 29.6% glucan, 18.4% xylan and 20% acid insoluble lignin (entry 1). […] This trend was most obvious after pretreatment under higher temperature where lignin content was reduced by 77% (untreated: 20% vs. pretreated: 4.7%). […] IL are consistent with our previous report by using basic ILs such as [Ch][Lys] and [C2C1Im][Lys].^13
Compositional analysis of SG before and after pretreatment was performed using NREL acidolysis protocols (LAP) LAP-002 and LAP-005, which was described in our previous work.^13 In a typical process, 200 mg of biomass and 2 mL of 72 wt % H2SO4 were incubated at 30° C. while shaking at 300 rpm for 1 h. The solution was diluted to 4 wt % H2SO4 with 56 mL of DI water and autoclaved for 1 h at 121° C. […] Carbohydrate concentrations were determined from the filtrate using an Agilent HPLC 1200 Series equipped with a Bio-Rad Aminex HPX-87H column and a Refractive Index detector. […] Acid insoluble lignin was quantified gravimetrically from the solid after heating overnight at 105° C. […]

[6] = test system: Saccharomyces cerevisiae strain BY4741; assay: Toxicity test: yeast growth in IL solution; type: cell-based
Description: FIG. 5A. Toxicity test of [EOA][OAc] (A) and effect of biomass loading on sugar yield (B). Conditions: yeast strain: Saccharomyces cerevisiae strain BY4741, growth condition: in 24-well microplate with orbital-high intensity shaking/31° C./in IL solution (10 g/L glucose in each IL solutions), volume of the cell culture was 0.5 mL.
For toxicity screening, a wild type S. cerevisiae BY4741 strain was technically used and it was immersed in various IL concentrations from 2.5 to 15 wt %.

[7] = One-pot pretreatment and SSF (cellulosic ethanol production); design: species or system Panicum virgatum; conditions: for theoretical ethanol yield: SSF
Description: (§3) FIG. 6A. Process optimization of one-pot ethanol fermentation after [EOA][OAc] pretreatment. Effect of yeast loading on ethanol fermentation. Conditions: pretreatment, 40 wt % SG loading, 60 wt % IL, 160° C., 0.5 h; saccharification, 5 wt % IL, 20 mg protein/g SG, pH 5, 50° C., 24 h; fermentation, 37° C., 72 h.
as §3, with “6B.” for “6A.”, “Illustration” for “Effect”, “the glucose consumption and” for “yeast loading on”, “production during SSF.” for “fermentation.”
FIG. 7. Illustration of the glucose consumption and ethanol production during SSF. Conditions: pretreatment, 40 wt % SG loading, 60 wt % IL, 160° C., 0.5 h; saccharification, 5 wt % IL, 20 mg protein/g SG, 50° C., 24 h; fermentation, 37° C., 72 h.
In a typical procedure, SG (100 mg) was mixed with ([EOA][OAc]) at a 40% biomass loading in a 15 mL capped glass pressure tube and pretreated in a convection oven at 160° C. for 0.5 h. After pretreatment, the pretreated slurry was diluted with DI-water to obtain a final IL concentration of 5 wt %, and pre-saccharificated for 24 h under the same aforementioned conditions. Simultaneously, wide type yeast strain BY4741 was prepared. After the addition of yeast strain, the SSF step was conducted for 72 hrs.

cellulases = conditions: previous literatures; cited from earlier work
pH of ILs = type: physicochemical
[8] = Biomass pretreatment using PBIL: enzymatic saccharification glucose yield
[9] = optimized conditions, short time pretreatment
[10] = T/t 140/1, IL concentration not given

Molecule: CC(=O)O.NCCO [[EOA][OAc], ethanolamine acetate]
glucose yield ([1]; 10% SG loading, 160 °C pretreated sample): ~85%
glucose yield ([1]; 40 wt % starting biomass loading (60 wt % IL), diluted to 5 wt % IL in saccharification (FIG. 5B)): comparative glucose yield with 20 wt % starting biomass loading
yield of glucose ([1]; pretreatment time 0.5 hrs): 85%
yield of xylose ([1]; pretreatment time 0.5 hrs): 35%
yield of glucose ([1]; pretreatment time 3 hrs): 87%
yield of xylose ([1]; pretreatment time 3 hrs): 42%
glucose yield ([1]; SG loading 25 wt %): Around 60%
glucose yield ([1]; biomass loading 5 to 20 wt % at pretreatment (FIG. 4A)): more than 75%
increase in digestibility of SG ([1]; from 140 to 160 °C): over 40%
sugar yield, IL screening ([1]; low pretreatment temperature and low enzyme loading (FIG. 3: 140 °C, 1 h, 10 mg protein per g switchgrass)): best performance
glucose (monomers) liberated from switchgrass [1, 9]: 85%
xylose (monomers) liberated from switchgrass [1, 9]: 35%
digestibility of SG ([1]; pretreatment 140 °C (FIG. 4B)): 60%
digestibility of SG ([1]; pretreatment 160 °C (FIG. 4B)): 85%
glucose released from SG ([1]; pretreatment 160 °C, 15 min): 45%
sugar yields [2]: best performance
sugar yields [3]: low sugar yields
sugar yields [4]: low sugar yields
lignin content reduced by [5]: 77%
yeast growth ([6]; 5 wt % IL concentration): better yeast growth
IL titer at which better yeast growth occurs ([6]; IL concentrations from 2.5 to 15 wt %, FIG. 5A): below 10 wt %
theoretical ethanol yield ([7]; 40 wt % SG loading at pretreatment): 70%
theoretical ethanol yield ([7]; yeast loading 0.1 wt % (1 g/L)): around 70%
ethanol produced ([7]; from the glucan present in 1 kg of SG): 117 g
overall conversion in one-pot ([7]; glucan balance, FIG. 7): 70%
glucose from saccharification converted to ethanol ([7]; glucan/glucose balance, FIG. 7): over 90%
ethanol yield versus yeast loading ([7]; yeast loading increased from 0.01 to 0.21 wt % (FIG. 6A)): no significant difference in ethanol yield

Molecule: CCCCn1cc[n+](C)c1.[Cl-] [[C4C1Im][Cl], 1-n-butyl-3-methylimidazolium chloride]
IL concentration known to deactivate cellulases (cellulases): ~5 wt %

Molecule: CCCCN(CCCC)CCCC.O=P(O)(O)O [[N444][H2PO4]]
ILs pH (pH of ILs; Table 5): 4.5
Enzymatic Saccharification Glucose yield % ([8]; T/t 50/3): 13.4 ± 2.6%
Enzymatic Saccharification Glucose yield % ([8]; T/t 90/3): 16.2 ± 0.6%

Molecule: CC(=O)[O-].CCn1cc[n+](C)c1 [[C2C1Im][OAc], 1-ethyl-3-methyl imidazolium acetate]
IL concentration known to deactivate cellulases (cellulases): ~5 wt %

Molecule: C[N+](C)(C)CCO.C[N+](C)(C)CCO.C[N+](C)(C)CCO.O=P([O-])([O-])[O-] [[Ch]3[PO4]]
pH (pH of ILs): 12.5
Enzymatic Saccharification Glucose yield % ([8]; T/t 140/1, IL 20%): 54.6%
Enzymatic Saccharification Glucose yield % ([8]; T/t 140/1, IL 50%): 61.1%
Enzymatic Saccharification Glucose yield % ([8]; T/t 140/1, IL 100%): 61.8%

Molecule: dimethylammonium dimethylcarbamate
Enzymatic Saccharification Glucose yield % [8, 10]: 55.2 ± 3.9%

Molecule: Cholinium bicarbonate [[Ch][Bicarbonate]]
Enzymatic Saccharification Glucose yield % [8, 10]: 52.8 ± 4.3%

Molecule: C[N+](C)(C)CCO.C[N+](C)(C)CCO.O=P([O-])([O-])O [[Ch]2[HPO4]]
pH (pH of ILs): 8
Enzymatic Saccharification Glucose yield % ([8]; T/t 140/1, IL 20%): 61.9%
Enzymatic Saccharification Glucose yield % ([8]; T/t 140/1, IL 50%): 55.1%
Enzymatic Saccharification Glucose yield % ([8]; T/t 140/1, IL 100%): 49.7%

Molecule: NCCO.O=P(O)(O)O [EA-dihydrogenphosphate]
pH (pH of ILs; Table 2): 4.5

pH (pH of ILs; Table 2): 9
Molecule: NCCCC[C@H](N)C(=O)O.NCCO [EA-lysinate-m 1]

Molecule: C[N+](C)(C)CCO.O=P([O-])(O)O [[Ch][H2PO4], Cholinium dihydrogen-phosphate]
pH (pH of ILs): 4.5
pH (pH of ILs; Table 2): 4.5
Enzymatic Saccharification Glucose yield % ([8]; T/t 140/1, IL 20%): 17.5%
Enzymatic Saccharification Glucose yield % ([8]; T/t 140/1, IL 50%): 16.9%
Enzymatic Saccharification Glucose yield % ([8]; T/t 140/1, IL 100%): 14.4%
